Measurements reported in patent EP1598069A2, “Pharmaceutical combination of ethinylestradiol and drospirenone for use as a contraceptive” (Schering Aktiengesellschaft, priority 1999, dated 2001).

Experiments:
[1] = human, in vivo, po
Description: 42 healthy women between 18 and 35 years of age were included in an open-label crossover study after their informed consent had been obtained. The aim of the study was to investigate the relative bioavailability of drospirenone and ethinylestradiol from a tablet formulation containing 3 mg drospirenone and 0.03 mg ethinylestradiol with reference to an oral suspension containing 6 mg of drospirenone and 0.06 mg ethinylestradiol per vial.
The bioavailability was determined using serum concentrations of each active agent as parameters.

[2] = Absolute bioavailability of drospirenone after oral administration; type: in vivo, women
[3] = Solubility in water and aqueous buffers (statement); type: physicochemical; conditions: drospirenone: in water and aqueous buffers at various pH values
[4] = Chemical stability under acid and alkaline conditions (statement); type: physicochemical

SMILES | relative bioavailability [1] [%] | bioavailability ([2]; human, in vivo, oral administration of a microcrystalline suspension containing 3.13 mg drospirenone to 6 postmenopausal women) [%] | absolute bioavailability ([2]; oral administration of 2 mg drospirenone to 8 young healthy women) | solubility [3] | stability under acid conditions ([4]; acid conditions) | stability under alkaline conditions ([4]; alkaline conditions)
C[C@]12CCC(=O)C=C1[C@@H]1C[C@@H]1[C@H]1[C@@H]3[C@@H]4C[C@@H]4[C@@]4(CCC(=O)O4)[C@@]3(C)CC[C@@H]12 [drospirenone, 6β,7β;15β,16β-dimethylene-3-oxo-17α-pregn-4-ene-21,17-carbolactone] | 107 | 85 | 76%±13% | sparingly soluble | rearranged to an inactive isomer | hydrolysed
C#C[C@]1(O)CC[C@H]2[C@@H]3CCc4cc(O)ccc4[C@H]3CC[C@@]21C [ethinylestradiol, 17α-ethinylestradiol] | 117 | – | – | sparingly soluble | – | –
